Drawing on patent US20080207617A1, “Quinoline Derivatives and Quinazoline Derivatives Inhibiting Autophosphrylation of Flt3 and Medicinal Compositions Containing the Same” (KIRIN BEER KABUSHIKI KAISHA, priority 2002, published 2008), this text covers IC50 for 7 molecules.

Structures can show the parent of a compound that is named as a salt.

One assay concerns MV4-11. In words: Cell growth inhibitory test MV4-11 (WST-1). The format is cell-based, human. The conditions noted are these: MV4-11 cells, 3 days culture. The method in brief:
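MV4-11 leukemia cells (3×10^3/well, DMEM + 10% FCS) were cultured 3 days with compound in DMSO at 5% CO2. Growth read by WST-1 absorbance at 450 nm (ref 650 nm), normalized to untreated (100%) and cell-free (0%) wells; IC50 from multiple concentrations.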
Background: Tetrazolium dyes change colour on reduction, which living cells bring about.

In assay [1] the test system is MOLM13. The assay is described as follows: Cell growth inhibitory activity using MTT method (MOLM13). As to conditions: MOLM13 cells. The format is cell-based, human.
For assay [2], the system named is MOLM13. The assay is described as follows: Cell growth inhibitory activities on cultured human leukemia cells MOLM-13 (WST-1). The format is cell-based. As to conditions: 3 days culture.

Consider `COc1cc2c(Oc3ccc(NC(=O)NCCC(C)(C)C)c(F)c3)ccnc2cc1OCCN1CCCCC1` [Compound 43, 1-(3,3-Dimethyl-butyl)-3-{2-fluoro-4-[6-methoxy-7-(2-piperidin-1-yl-ethoxy)-quinolin-4-yloxy]-phenyl}-urea hydrochloride], for which the IC50 (commonly the concentration at which inhibition is half-maximal) in the assay on MV4-11 (Homo sapiens, MV4-11, 72 h) amounted to 12 nM; with MOLM13 [1] (Homo sapiens, MOLM-13, 72 h), 32.5 nM; with MOLM13 [2] (Homo sapiens, MOLM-13, 72 h), 22 nM.

As to `COc1cc2nccc(Oc3c(Cl)cc(NC(=O)NCCC(C)(C)C)cc3Cl)c2cc1OC` [Compound 6, 1-[3,5-Dichloro-4-(6,7-dimethoxy-quinolin--4-yloxy)-phenyl]-3-(3,3-dimethyl-butyl)-urea], the IC50 amounted to 8 nM with MV4-11 (Homo sapiens, MV4-11, 72 h); 12.4 nM in the assay with MOLM13 [1] (Homo sapiens, MOLM-13, 72 h); 21 nM in the assay with MOLM13 [2] (Homo sapiens, MOLM-13, 72 h).

As for `COc1cc2nccc(Oc3ccc(NC(=O)NCCC(C)(C)C)cc3F)c2cc1OC` [Compound 10, 1-[4-(6,7-Dimethoxy-quinolin-4-yloxy)-3-fluoro-phenyl]-3-(3,3-dimethyl-butyl)-urea hydrochloride], the IC50 was less than 1 nM with MV4-11 (Homo sapiens, MV4-11, 72 h); 20.8 nM in the assay with MOLM13 [1] (Homo sapiens, MOLM-13, 72 h); 2 nM in the assay on MOLM13 [2] (Homo sapiens, MOLM-13, 72 h).

In the case of `COc1cc2nccc(Oc3ccc(NC(=O)NCCC(C)(C)C)cc3Cl)c2cc1OC` [Compound 8, 1-[3-Chloro-4-(6,7-dimethoxy-quinolin-4-yloxy)-phenyl]-3-(3,3-dimethyl-butyl)-urea], the IC50 in the assay with MV4-11 (Homo sapiens, MV4-11, 72 h) worked out at 1 nM; with MOLM13 [1] (Homo sapiens, MOLM-13, 72 h), 13.3 nM; with MOLM13 [2] (Homo sapiens, MOLM-13, 72 h), 3 nM.

`COc1cc2c(Oc3ccc(NC(=O)NCCC(C)(C)C)c(F)c3)ccnc2cc1OCCN1CCOCC1` [Compound 41, 1-(3,3-Dimethyl-butyl)-3-{2-fluoro-4-[6-methoxy-7-(2-morpholin-4-yl-ethoxy)-quinolin-4-yloxy]-phenyl}-urea hydrochloride]: the IC50 in the assay with MV4-11 (hydrochloride) turned out to be 25 nM; in the assay with MOLM13 [1] (72 hr, hydrochloride), 34.8 nM; in the assay on MOLM13 [2] (hydrochloride) it was 75 nM.

With `COc1cc2nccc(Oc3ccc(NC(=O)NCCC(C)(C)C)cc3)c2cc1OC` [Compound 1, 1-[4-(6,7-Dimethoxy-quinolin-4-yloxy)-phenyl]-3-(3,3-dimethyl-butyl)-urea hydrochloride], the IC50 is less than 1 nM in the assay with MV4-11 (Homo sapiens, MV4-11, 72 h); 24.4 nM in the assay with MOLM13 [1] (Homo sapiens, MOLM-13, 72 h); 1 nM with MOLM13 [2] (Homo sapiens, MOLM-13, 72 h).

In the case of `COc1cc2c(Oc3ccc(NC(=O)NCCC(C)(C)C)cc3F)ccnc2cc1OCCN1CCCCC1` [Compound 44, 1-(3,3-Dimethyl-butyl)-3-{3-fluoro-4-[6-methoxy-7-(2-piperidin-1-yl-ethoxy)-quinolin-4-yloxy]-phenyl}-urea], the IC50 in the assay with MV4-11 (Homo sapiens, MV4-11, 72 h) was determined as 2 nM; in the assay with MOLM13 [1] (Homo sapiens, MOLM-13, 72 h) it was 19.3 nM; with MOLM13 [2] (Homo sapiens, MOLM-13, 72 h) it was 3 nM.
